Results reported in patent publication US10590078B2, “Sodium channel blockers” (Daewoong Pharmaceutical Co., Ltd., priority 2015, dated 2020).

Biological target: human sodium ion channel 1.7 (hNav1.7) (Homo sapiens, UniProt Q15858)
Test: Blocking effect against sodium ion channel Nav1.7, IonFlux16 auto patch clamp in hNav1.7 HEK293 cells
Assay type: cell-based
Settings: hNav1.7 HEK293 cells; inhibition of peak current after 50 seconds treatment; eight concentrations; read-out: IC50

human sodium ion channel 1.7 (hNav1.7), sequence (Q15858 whole entry): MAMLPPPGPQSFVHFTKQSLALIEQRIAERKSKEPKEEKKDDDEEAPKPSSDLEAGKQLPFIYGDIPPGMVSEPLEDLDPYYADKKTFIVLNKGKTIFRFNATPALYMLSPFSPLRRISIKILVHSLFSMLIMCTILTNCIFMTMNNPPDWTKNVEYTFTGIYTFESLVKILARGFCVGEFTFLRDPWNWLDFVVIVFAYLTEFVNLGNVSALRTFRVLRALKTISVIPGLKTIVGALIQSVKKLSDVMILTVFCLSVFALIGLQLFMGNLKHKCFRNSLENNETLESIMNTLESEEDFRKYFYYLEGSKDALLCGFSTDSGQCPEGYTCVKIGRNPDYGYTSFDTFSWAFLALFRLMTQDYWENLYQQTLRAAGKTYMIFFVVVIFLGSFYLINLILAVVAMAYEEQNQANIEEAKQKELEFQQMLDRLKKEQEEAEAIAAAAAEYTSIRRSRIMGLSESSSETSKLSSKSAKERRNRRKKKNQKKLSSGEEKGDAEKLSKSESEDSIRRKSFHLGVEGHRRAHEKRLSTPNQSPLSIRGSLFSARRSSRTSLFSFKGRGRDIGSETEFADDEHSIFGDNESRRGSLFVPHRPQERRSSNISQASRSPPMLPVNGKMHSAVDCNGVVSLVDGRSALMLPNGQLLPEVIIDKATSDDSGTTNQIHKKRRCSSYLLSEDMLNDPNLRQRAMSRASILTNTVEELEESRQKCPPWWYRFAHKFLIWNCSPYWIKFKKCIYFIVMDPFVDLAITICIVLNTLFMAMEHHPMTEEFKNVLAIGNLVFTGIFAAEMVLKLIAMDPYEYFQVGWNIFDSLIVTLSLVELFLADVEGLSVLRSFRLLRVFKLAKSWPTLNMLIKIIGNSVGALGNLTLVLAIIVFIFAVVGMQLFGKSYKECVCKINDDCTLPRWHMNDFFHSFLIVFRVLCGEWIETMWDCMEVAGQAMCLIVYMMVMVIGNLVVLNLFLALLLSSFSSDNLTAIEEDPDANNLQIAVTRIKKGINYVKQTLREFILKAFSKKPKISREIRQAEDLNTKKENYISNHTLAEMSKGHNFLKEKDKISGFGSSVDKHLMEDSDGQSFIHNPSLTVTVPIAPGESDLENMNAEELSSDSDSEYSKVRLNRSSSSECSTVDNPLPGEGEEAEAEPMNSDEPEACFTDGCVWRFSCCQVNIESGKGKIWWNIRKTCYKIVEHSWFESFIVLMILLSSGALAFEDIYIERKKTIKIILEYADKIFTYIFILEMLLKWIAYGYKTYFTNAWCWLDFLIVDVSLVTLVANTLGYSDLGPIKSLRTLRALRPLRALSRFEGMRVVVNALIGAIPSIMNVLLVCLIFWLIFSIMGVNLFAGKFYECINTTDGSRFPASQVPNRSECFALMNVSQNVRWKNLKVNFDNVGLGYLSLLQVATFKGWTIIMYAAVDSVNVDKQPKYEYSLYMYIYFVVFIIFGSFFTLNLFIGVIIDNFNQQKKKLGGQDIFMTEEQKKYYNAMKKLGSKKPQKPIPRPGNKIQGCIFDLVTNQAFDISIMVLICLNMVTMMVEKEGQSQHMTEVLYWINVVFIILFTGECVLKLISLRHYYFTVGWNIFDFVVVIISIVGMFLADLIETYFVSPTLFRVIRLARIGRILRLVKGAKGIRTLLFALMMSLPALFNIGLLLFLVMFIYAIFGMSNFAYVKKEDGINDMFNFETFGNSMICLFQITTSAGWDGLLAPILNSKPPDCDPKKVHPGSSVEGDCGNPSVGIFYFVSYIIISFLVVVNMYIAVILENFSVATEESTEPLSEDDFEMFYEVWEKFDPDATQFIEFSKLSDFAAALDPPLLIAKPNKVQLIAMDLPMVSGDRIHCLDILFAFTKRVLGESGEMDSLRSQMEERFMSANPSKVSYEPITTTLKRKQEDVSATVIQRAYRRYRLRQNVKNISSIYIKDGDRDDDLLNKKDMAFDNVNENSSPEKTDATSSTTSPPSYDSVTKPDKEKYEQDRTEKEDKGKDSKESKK

| IC50 | SMILES |
| --- | --- |
| 3 to 10 µM | Cn1nccc1-c1ccc2c(c1)c(Cl)nn2-c1cc(F)c(S(=O)(=O)Nc2cscn2)cc1Cl [Example 286, 5-chloro-4-(3-chloro-5-(1-methyl-1H-pyrazol-5-yl)-1H-indazol-1-yl)-2-fluoro-N-(thiazol-4-yl)benzenesulfonamide] |
| 8.25 µM | O=S(=O)(Nc1cscn1)c1cc(Cl)c(-n2nc(-c3ccc(Cl)cc3F)c3cc(Cl)ccc32)cc1F [Example 287, 5-chloro-4-(5-chloro-3-(4-chloro-2-fluorophenyl)-1H-indazol-1-yl)-2-fluoro-N-(thiazol-4-yl)benzenesulfonamide] |
| > 10 µM | N#Cc1cc(Cl)c(-n2nc(-c3ccc(Cl)cc3F)c3cc(Cl)ccc32)cc1F [Example 288, 5-chloro-4-(5-chloro-3-(4-chloro-2-fluorophenyl)-1H-indazol-1-yl)-2-fluorobenzonitrile] |
| > 10 µM | Fc1cc(-n2nc(-c3ccc(Cl)cc3F)c3cc(Cl)ccc32)c(Cl)cc1-c1nnn[nH]1 [Example 289, 5-chloro-3-(4-chloro-2-fluorophenyl)-1-(2-chloro-5-fluoro-4-(1H-tetrazol-5-yl)phenyl)-1H-indazole] |
| 11.2 µM | NC(=O)NNC(=O)c1cc(Cl)c(-n2nc(-c3ccc(Cl)cc3F)c3cc(Cl)ccc32)cc1F [Example 290, 2-(5-chloro-4-(5-chloro-3-(4-chloro-2-fluorophenyl)-1H-indazol-1-yl)-2-fluorobenzoyl)hydrazine-1-carboxamide] |
| 10.8 µM | O=c1[nH]nc(-c2cc(Cl)c(-n3nc(-c4ccc(Cl)cc4F)c4cc(Cl)ccc43)cc2F)[nH]1 [Example 291, 5-(5-chloro-4-(5-chloro-3-(4-chloro-2-fluorophenyl)-1H-indazol-1-yl)-2-fluorophenyl)-2,4-dihydro-3H-1,2,4-triazol-3-one] |
| > 10 µM | NC(=O)c1cc(Cl)c(-n2nc(-c3ccc(Cl)cc3F)c3cc(Cl)ccc32)cc1F [Example 292, 5-chloro-4-(5-chloro-3-(4-chloro-2-fluorophenyl)-1H-indazol-1-yl)-2-fluorobenzamide] |
| > 10 µM | CC(=O)NC(=O)c1cc(Cl)c(-n2nc(-c3ccc(Cl)cc3F)c3cc(Cl)ccc32)cc1F [Example 293, N-acetyl-5-chloro-4-(5-chloro-3-(4-chloro-2-fluorophenyl)-1H-indazol-1-yl)-2-fluorobenzamide] |
| > 10 µM | O=C(Nc1nccs1)c1cc(Cl)c(-n2nc(-c3ccc(Cl)cc3F)c3cc(Cl)ccc32)cc1F [Example 294, 5-chloro-4-(5-chloro-3-(4-chloro-2-fluorophenyl)-1H-indazol-1-yl)-2-fluoro-N-(thiazol-2-yl)benzamide] |
| > 10 µM | Cc1cnc(NC(=O)c2cc(Cl)c(-n3nc(-c4ccc(Cl)cc4F)c4cc(Cl)ccc43)cc2F)s1 [Example 295, 5-chloro-4-(5-chloro-3-(4-chloro-2-fluorophenyl)-1H-indazol-1-yl)-2-fluoro-N-(5-methylthiazol-2-yl)benzamide] |
| > 10 µM | CCOC(=O)c1cnc(NC(=O)c2cc(Cl)c(-n3nc(-c4ccc(Cl)cc4F)c4cc(Cl)ccc43)cc2F)s1 [Example 296, ethyl 2-(5-chloro-4-(5-chloro-3-(4-chloro-2-fluorophenyl)-1H-indazol-1-yl)-2-fluorobenzamido)thiazole-5-carboxylate] |
